Data from ChEMBL document CHEMBL1201862, “PubChem BioAssay data set” (2004).
Activity calls are given as the source filed them.

Tests used:
[1] = Late stage counterscreen for inhibitors of Trypanosoma brucei methionyl tRNA synthetase (MetRS): Luminescence-based cell-based high throughput dose response assay to identify compounds that are cytotoxic to Jurkat human T lymphocyte cells.; type: functional
[2] = biological target: T1, Methionyl-tRNA synthetase, putative (Trypanosoma brucei brucei, UniProt Q38C91); type: functional, Trypanosoma brucei brucei strain 927/4 GUTat10.1
T1 sequence (Q38C91 whole entry): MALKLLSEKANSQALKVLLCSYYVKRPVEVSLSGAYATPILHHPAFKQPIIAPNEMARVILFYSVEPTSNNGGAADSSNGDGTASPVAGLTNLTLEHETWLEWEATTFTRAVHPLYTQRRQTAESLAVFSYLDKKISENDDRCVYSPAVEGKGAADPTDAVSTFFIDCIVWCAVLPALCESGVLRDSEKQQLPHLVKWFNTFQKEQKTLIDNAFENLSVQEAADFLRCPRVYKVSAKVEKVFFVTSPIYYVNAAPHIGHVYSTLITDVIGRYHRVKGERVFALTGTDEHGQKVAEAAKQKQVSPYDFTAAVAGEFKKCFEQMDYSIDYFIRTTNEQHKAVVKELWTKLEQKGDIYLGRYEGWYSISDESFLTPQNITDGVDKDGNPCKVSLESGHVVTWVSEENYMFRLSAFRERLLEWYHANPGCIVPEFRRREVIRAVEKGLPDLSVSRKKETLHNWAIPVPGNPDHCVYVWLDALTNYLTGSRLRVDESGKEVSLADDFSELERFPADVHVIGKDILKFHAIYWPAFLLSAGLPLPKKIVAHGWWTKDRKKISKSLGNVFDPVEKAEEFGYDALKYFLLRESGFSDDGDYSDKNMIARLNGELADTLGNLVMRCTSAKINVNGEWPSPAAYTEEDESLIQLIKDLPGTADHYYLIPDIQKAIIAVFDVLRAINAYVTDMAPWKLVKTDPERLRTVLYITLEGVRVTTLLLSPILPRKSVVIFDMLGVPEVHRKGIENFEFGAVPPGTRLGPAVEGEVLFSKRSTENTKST

[3] = biological target: T1, Methionyl-tRNA synthetase, putative; type: functional, Trypanosoma brucei brucei strain 927/4 GUTat10.1; remark: listed apart in the source
[4] = Counterscreen for inhibitors of Trypanosoma brucei methionyl tRNA synthetase (MetRS): Luminescence-based cell-based high throughput dose response assay to identify compounds that are cytotoxic to Jurkat human T lymphocyte cells.; type: functional
[5] = A549 cell cytotoxicity, dose response, cytotoxicity control, 24 h, CellTiter-Glo luminescence, cherry-picks (AID 1053115); type: functional, cell-based; settings: A549, 24 h
[6] = M. tuberculosis growth inhibition, HTS (AID 449762); type: functional
[7] = Luminescence-based cell-based high throughput dose response assay to identify activators of the DAF-12 from the parasite S. stercoralis (ssDAF-12).; type: functional
[8] = biological target: T2, Oxysterols receptor LXR-beta (Homo sapiens, UniProt P55055); assay: LXR agonists, Gal4 luciferase reporter, dose response, counter-screen for ssDAF-12 agonist project, cell-based, luminescence, HEK293, S. stercoralis campaign (AID 720737); type: functional; settings: read-out: IC50 (the source's name)
T2 sequence (P55055 whole entry): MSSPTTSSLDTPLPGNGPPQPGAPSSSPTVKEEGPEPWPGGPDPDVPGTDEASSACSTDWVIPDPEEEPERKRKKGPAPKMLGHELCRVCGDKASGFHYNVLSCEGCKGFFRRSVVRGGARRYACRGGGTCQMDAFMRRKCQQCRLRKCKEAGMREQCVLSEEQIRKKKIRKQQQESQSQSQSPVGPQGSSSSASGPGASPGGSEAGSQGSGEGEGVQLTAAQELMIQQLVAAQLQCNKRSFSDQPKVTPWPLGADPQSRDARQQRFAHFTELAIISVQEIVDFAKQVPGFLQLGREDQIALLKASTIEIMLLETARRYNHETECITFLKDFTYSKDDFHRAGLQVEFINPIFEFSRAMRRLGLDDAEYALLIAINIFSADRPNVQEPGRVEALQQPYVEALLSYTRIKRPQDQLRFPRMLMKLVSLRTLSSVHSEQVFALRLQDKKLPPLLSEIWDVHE

[9] = test system: HEK293; assay: NOD2 signaling inhibitors in MDP-stimulated cells, cell-based, uHTS, luminescence (AID 2001); type: functional; settings: Homo sapiens
[10] = test system: INS1; assay: beta cell apoptosis inhibitors, cytokine rescue, dose response, luminescence, retest (AID 449756); type: functional, cell-based; settings: Rattus norvegicus;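 also: cell death triggered by IL-1 beta plus TNF-alpha plus IFN-gamma mixture; protective hits raise ATP signal compared with cytokine alone wells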
[11] = test system: HEK293; assay: cells; type: functional, cell-based; settings: Homo sapiens
[12] = test system: HEK293; assay: NOD1 signaling inhibitors, primary screen, cell-based, luminescence, uHTS (AID 1578); type: functional; settings: Homo sapiens
[13] = biological target: COUP transcription factor 2 (Homo sapiens, UniProt P24468); assay: Luminescence-based cell-based high throughput dose response assay to identify inhibitors of COUP-TFII (NR2F2).; type: functional;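 also: HEK293 cells transiently cotransfected with COUP-TFII expression vector and reporter; luciferase reporter luminescence driven by COUP-TFII from the pX2-168 reporter plasmid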
COUP transcription factor 2, sequence (P24468 whole entry): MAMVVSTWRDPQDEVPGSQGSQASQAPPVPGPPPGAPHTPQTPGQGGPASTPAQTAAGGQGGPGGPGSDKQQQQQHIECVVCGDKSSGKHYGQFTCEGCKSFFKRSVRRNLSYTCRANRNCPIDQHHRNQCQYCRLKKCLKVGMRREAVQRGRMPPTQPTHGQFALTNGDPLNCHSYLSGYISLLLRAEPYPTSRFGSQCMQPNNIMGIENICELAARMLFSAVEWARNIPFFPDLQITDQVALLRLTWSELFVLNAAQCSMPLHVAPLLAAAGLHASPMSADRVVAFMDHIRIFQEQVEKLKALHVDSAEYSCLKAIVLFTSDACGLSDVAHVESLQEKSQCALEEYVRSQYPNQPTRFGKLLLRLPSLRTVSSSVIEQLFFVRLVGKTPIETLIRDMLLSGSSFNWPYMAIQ

[14] = test system: HEK293; assay: cells; type: functional, cell-based; settings: Homo sapiens; remark: listed apart in the source
[15] = test system: HEK293; assay: cells; type: functional, cell-based; settings: Homo sapiens; remark: listed apart in the source
[16] = biological target: Nucleotide-binding oligomerization domain-containing protein 2 (Homo sapiens, UniProt Q9HC29); assay: NOD2 signaling inhibitors, cell-based, luminescence, uHTS, HEK293 (AID 1566); type: functional
Nucleotide-binding oligomerization domain-containing protein 2, sequence (Q9HC29 whole entry, the tested form may be a part): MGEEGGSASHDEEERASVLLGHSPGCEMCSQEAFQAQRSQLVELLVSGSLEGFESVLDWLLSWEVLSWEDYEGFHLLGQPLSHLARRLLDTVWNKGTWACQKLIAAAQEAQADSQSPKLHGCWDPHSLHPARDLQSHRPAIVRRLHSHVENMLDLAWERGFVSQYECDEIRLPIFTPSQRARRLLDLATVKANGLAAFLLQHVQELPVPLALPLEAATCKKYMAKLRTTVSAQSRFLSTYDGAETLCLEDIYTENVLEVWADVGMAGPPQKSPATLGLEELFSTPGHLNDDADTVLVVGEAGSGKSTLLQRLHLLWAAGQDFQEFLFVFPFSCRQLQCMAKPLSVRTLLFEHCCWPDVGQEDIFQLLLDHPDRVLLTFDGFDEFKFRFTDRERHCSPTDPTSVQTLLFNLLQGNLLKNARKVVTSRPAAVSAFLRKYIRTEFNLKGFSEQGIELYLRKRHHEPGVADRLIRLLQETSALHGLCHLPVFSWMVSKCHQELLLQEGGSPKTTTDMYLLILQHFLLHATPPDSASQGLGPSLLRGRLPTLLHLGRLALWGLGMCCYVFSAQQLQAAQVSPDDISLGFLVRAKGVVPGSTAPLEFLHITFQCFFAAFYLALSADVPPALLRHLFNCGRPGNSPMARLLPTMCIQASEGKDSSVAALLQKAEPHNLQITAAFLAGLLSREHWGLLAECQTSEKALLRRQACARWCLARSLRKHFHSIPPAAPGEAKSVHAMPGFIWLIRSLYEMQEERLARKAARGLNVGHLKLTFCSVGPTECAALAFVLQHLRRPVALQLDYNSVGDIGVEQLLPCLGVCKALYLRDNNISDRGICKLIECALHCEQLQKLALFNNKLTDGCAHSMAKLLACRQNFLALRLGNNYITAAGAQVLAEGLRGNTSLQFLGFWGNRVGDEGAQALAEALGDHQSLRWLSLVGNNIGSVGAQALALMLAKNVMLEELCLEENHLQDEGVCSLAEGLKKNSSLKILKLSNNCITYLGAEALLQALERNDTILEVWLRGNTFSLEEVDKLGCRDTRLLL

[17] = biological target: Heat shock protein HSP 90-alpha (Homo sapiens, UniProt P07900); assay: Luminescence-based dose response biochemical high throughput screening assay for inhibitors of the Heat Shock Protein 90 (HSP90). [Related pubchem assays: 1831 (Summary AID.), 1846 (Confirmation screen.), 1789 (Primary screen.)]
[18] = biological target: Galanin receptor type 2 (Homo sapiens, UniProt O43603); assay: Dose Response cell-based high-throughput screening assay to identify antagonists of galanin receptor 2 (GALR2). [Related pubchem assays: 828, 866 ]; type: functional
Galanin receptor type 2, sequence (O43603 whole entry): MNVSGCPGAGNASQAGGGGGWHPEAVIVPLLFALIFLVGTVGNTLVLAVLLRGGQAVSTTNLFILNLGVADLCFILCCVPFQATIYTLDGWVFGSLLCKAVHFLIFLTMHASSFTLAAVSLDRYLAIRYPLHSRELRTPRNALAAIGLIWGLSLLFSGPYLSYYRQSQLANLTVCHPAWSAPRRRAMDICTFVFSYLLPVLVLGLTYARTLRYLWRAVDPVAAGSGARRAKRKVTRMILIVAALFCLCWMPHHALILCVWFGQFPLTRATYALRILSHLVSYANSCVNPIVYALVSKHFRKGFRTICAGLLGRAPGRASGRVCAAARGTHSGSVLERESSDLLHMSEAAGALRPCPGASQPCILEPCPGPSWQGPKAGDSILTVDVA

[19] = biological target: Mitogen-activated protein kinase 10 (Homo sapiens, UniProt P53779); assay: Dose response biochemical screening assay for inhibitors of c-Jun N-Terminal Kinase 3 (JNK3). [Related pubchem assays: 746 ]
Mitogen-activated protein kinase 10, sequence (P53779 whole entry): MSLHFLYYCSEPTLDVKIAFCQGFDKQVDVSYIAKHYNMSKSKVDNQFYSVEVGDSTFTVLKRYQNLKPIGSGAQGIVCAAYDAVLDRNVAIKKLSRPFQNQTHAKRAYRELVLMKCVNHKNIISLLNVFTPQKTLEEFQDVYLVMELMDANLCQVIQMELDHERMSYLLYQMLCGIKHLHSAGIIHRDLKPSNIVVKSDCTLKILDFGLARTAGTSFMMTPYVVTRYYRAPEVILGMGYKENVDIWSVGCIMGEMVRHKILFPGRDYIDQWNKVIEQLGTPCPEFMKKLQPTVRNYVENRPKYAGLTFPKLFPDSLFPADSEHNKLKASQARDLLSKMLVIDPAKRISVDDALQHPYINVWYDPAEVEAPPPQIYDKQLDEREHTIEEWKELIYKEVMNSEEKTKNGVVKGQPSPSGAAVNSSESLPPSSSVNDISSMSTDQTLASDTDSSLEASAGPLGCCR

[20] = biological target: T3, Tyrosine-protein phosphatase non-receptor type 7 (Homo sapiens, UniProt P35236); assay: inhibitors of human HePTP phosphatase, […], biochemical, absorbance, leukemia target (AID 521); type: functional
T3 sequence (P35236 whole entry): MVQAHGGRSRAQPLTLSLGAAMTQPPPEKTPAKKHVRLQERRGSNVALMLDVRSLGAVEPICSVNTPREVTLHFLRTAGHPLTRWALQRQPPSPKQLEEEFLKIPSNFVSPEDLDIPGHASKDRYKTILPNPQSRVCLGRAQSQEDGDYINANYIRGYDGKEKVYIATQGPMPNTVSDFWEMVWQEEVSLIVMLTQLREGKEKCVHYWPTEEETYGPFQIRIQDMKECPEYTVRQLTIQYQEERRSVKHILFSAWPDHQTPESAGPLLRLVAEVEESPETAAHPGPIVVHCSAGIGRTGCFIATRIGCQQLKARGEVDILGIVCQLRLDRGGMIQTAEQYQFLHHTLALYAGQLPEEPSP

[21] = P. falciparum Dd2 growth inhibitors, dose response, SYBR Green, dry powder samples, set 9 (AID 1159568); type: functional, cell-based

Clc1ccc(OCCSCc2nc3ccccc3[nH]2)cc1
IC50 [1]: > 83.3 µM (inactive)
IC50 [2]: 5.85 µM (active)
IC50 [3]: 8.17 µM (active)
IC50 [4]: 83.3 µM (inactive)

OC[C@@H]1Nc2ccc(-c3ccccc3)cc2[C@@H]2[C@H]1CCN2Cc1ccc(F)cc1
AC50 [5]: > 60 µM (inactive)

C/C(CC(=O)Nc1ccc(C)c(Cl)c1)=N\NC(=O)Cc1cnc(N)s1
IC50 [6]: > 100 µM (active)

Oc1[nH]ncc1/C=N/c1ccc(Oc2ccccc2)cc1
IC50 [7]: > 67.5 µM (inactive)
EC50 [8]: > 67.5 µM (inactive)

CC(=O)Nc1ccccc1OCC(=O)c1cc(C)n(Cc2cccs2)c1C
IC50 [9]: 2.05 µM (inactive)
AC50 [10]: 0.775 µM (active)
IC50 [11]: < 0.312 µM (active)
EC50 [12]: 0.566 µM (active)
IC50 [13]: 0.807 µM (active)
IC50 [14]: 13.4 µM (active)
IC50 [15]: > 20 µM (inactive)
EC50 [16]: < 0.31 µM (inactive)
IC50 [17]: 0.106 µM (active)
IC50 [18]: > 42 µM (not active)

Cc1cccc(/N=C/c2c(O)[nH]c3ccccc23)n1
IC50 [19]: 41.7 µM (not active)

CN(Cc1ccccc1)c1nc2c(c(=O)[nH]c(=O)n2C)n1Cc1ccccc1
IC50 [20]: > 100 µM (not active)

O=C(Nc1ccccc1F)N1CCCCN2[C@H](CO)[C@@H](c3ccc(/C=C/c4ccccc4)cc3)[C@H]2C1
AC50 [21]: 1.72 µM (active)
